{
  "source": "patent US20240091299A1",
  "about": "“TOPICAL COMPOSITIONS FOR ENHANCING A MAN'S SEXUAL RESPONSIVENESS AND PERFORMANCE” (The Hidden Vault LLC, priority 2022, published 2024)",
  "tested_on": "penis of a person",
  "experiment": "topical application of the compositions (massage oil) to a person's penis, twice daily",
  "assay_type": "in vivo, human",
  "details": "ingredient as included in the compositions, applied topically to a person's penis as a massage oil",
  "data": [
    {"smiles": "C=C(C)[C@@H]1CCC(C)=C[C@H]1c1c(O)cc(CCCCC)cc1O", "note": "[CBD, Cannabidiol]", "values": [
      {"measurement": "effect on sexual arousal, performance, libido and penis size", "value": "enhances sexual arousal and performance and stamina"}
    ]}
  ]
}
